Experimental findings from patent US20150073050A1 (Amarin Pharmaceuticals Ireland Limited, priority 2013, published 2015) are described below.

The nature of the data set: Safety evaluation in the drug-drug interaction study (adverse events, clinical laboratory, vital signs, physical examination). The format is in vivo, human. The settings on record: omeprazole 40 mg with ethyl eicosapentaenoate 4 g/day, healthy subjects. An excerpt: Safety evaluations consisted of monitoring adverse events (AEs), clinical laboratory measurements (chemistry, hematology, and urinalysis), vital signs (systolic and diastolic blood pressure, heart rate, respiratory rate and oral body temperature), and physical examination findings.

As to `CC/C=C\C/C=C\C/C=C\C/C=C\C/C=C\CCCC(=O)OCC` [ethyl eicosapentaenoate, all-cis eicosa-5,8,11,14,17-pentaenoic acid ethyl ester], the “Premature discontinuation due to an adverse event” value is listed as “no subjects prematurely discontinued”; the “Safety and tolerability of concomitant administration” value is “safe and well-tolerated”; the Serious adverse events result is “No serious adverse events”.
In the case of `COc1ccc2[nH]c([S+]([O-])Cc3ncc(C)c(OC)c3C)nc2c1` (stereo not drawn) [Omeprazole, omeprazole], the “Premature discontinuation due to an adverse event” value is “no subjects prematurely discontinued”; the “Safety and tolerability of concomitant administration” value was “safe and well-tolerated”; the Serious adverse events entry is given as “No serious adverse events”.
